Assay: In vitro dissolution profile (USP-42 paddle method)
Format: physicochemical
Settings: for 50% dissolution time (T50): composites with 0.5 to 1.0% of HFP
Method: Dissolution measurements were carried out using USP-42 paddle method with Symphony 7100 Distek dissolution instrument. Agilent 8453 model UV-Visible spectrophotometer was used at a wavelength at 295.0 nm for the reference drug Griseofulvin standard absorbance measurements that calibrated to measure the formulation polymer incorporated drugs concentration and dissolution percentage estimation.

Row | Initial dissolution rate [µg/min] | 50% dissolution time (T50) | SMILES
1 | 74.3 | – | COc1ccc(-n2nc(C(N)=O)c3c2C(=O)N(c2ccc(N4CCCCC4=O)cc2)CC3)cc1 [Apixaban (APX), apixaban]
2 | 110.3 | 40 | COC1=CC(=O)C[C@@H](C)[C@]12Oc1c(Cl)c(OC)cc(OC)c1C2=O [Griseofulvin (GF), griseofulvin]
3 | 84.1 | 138 | CC(=O)O[C@]1(C(C)=O)CC[C@H]2[C@@H]3C=C(C)C4=CC(=O)CC[C@]4(C)[C@H]3CC[C@@]21C [Megestrol Acetate (MA), megestrol acetate]

Source: patent publication US20250114462A1, “HYDROPHILIC FUNCTIONALIZED PARTICLES IN THE DELIVERY OF HYDROPHOBIC DRUGS” (NEW JERSEY INSTITUTE OF TECHNOLOGY, priority 2023, published 2025)
